This note sets out measurements from ChEMBL document CHEMBL4017528, “Fragment-Based Discovery and Optimization of Enzyme Inhibitors by Docking of Commercial Chemical Space” (J Med Chem, 2017).

For test [1], the target named is Oxidized purine nucleoside triphosphate hydrolase (Homo sapiens, UniProt P36639). In words: Inhibition of human recombinant His-tagged MTH1 expressed in Escherichia coli BL21 using dGTP as substrate after 15 mins by malachite green reagent-based assay.
In test [2] the test system is HeLa. In words: Cytotoxicity against human HeLa cells after 72 hrs by WST-8 assay. The class given is functional, cell-based. A general note: Tetrazolium assays rely on reduction of a dye to a coloured formazan, in cell work by metabolically active cells.

A word on the IC50: it is the midpoint of a concentration-inhibition curve. For the molecule `Cc1nc(N)nc2ccccc12`, in test [1], the IC50 amounted to 5.6 µM.

As to `CSc1nc2c(N)ncnc2[nH]1`, in test [1], the IC50 came to 24 µM.

Turning to `Nc1nc(SCCc2ccccc2)c2nc[nH]c2n1`, the IC50 in test [1] came to 0.17 µM.

As a reminder, the EC50 is the concentration giving half of the maximal effect. In test [2], `Nc1nc(NCCc2ccccc2)c2nc[nH]c2n1` displayed an EC50 of 35 µM.
